Columns and labels:
Hepatitis C virus [1] = experiment: Antiviral activity against HCV genotype 1b infected in human Huh7/Rep-Feo1b replicon cells assessed as inhibition of viral viral RNA replication incubated for 48 hrs by luciferase reporter gene assay; type: functional, cell-based, Hepacivirus hominis; conditions: Huh-7, 48 h
[2] = Cytotoxicity against human Huh7.5 cells by MTS assay; type: cell-based, Huh-7
Hepatitis C virus [3] = experiment: Antiviral activity against HCV genotype 1b infected in human Huh7/Rep-Feo1b replicon cells assessed as inhibition of viral viral RNA replication at 50 uM incubated for 48 hrs by luciferase reporter gene assay; type: functional, Hepacivirus hominis; conditions: Huh-7, 48 h
[4] = Selectivity index, ratio of CC50 for human Huh7.5 cells to EC50 for HCV genotype 2a infected in human Huh7.5-FGR-JC1-Rluc2A replicon cells; design: species or system Huh-7
Hepatitis C virus [5] = experiment: Antiviral activity against HCV genotype 2a infected in human Huh7.5-FGR-JC1-Rluc2A replicon cells assessed as inhibition of viral viral RNA replication at 50 uM incubated for 48 hrs by luciferase reporter gene assay; type: functional, Hepacivirus hominis; conditions: Huh-7, 48 h
Hepatitis C virus [6] = experiment: Antiviral activity against HCV genotype 2a infected in human Huh7.5-FGR-JC1-Rluc2A replicon cells assessed as inhibition of viral viral RNA replication incubated for 48 hrs by luciferase reporter gene assay; type: functional, cell-based, Hepacivirus hominis; conditions: Huh-7, 48 h
[7] = Selectivity index, ratio of CC50 for human Huh7.5 cells to EC50 for HCV genotype 1b infected in human Huh7/Rep-Feo1b replicon cells; design: species or system Huh-7

| SMILES | EC50 (Hepatitis C virus [1]) [µM] | EC50 (Hepatitis C virus [6]) [µM] | CC50 [2] [µM] | inhibition at 50 µM (Hepatitis C virus [3]) [%] | Ratio CC50/EC50 [4] | inhibition at 50 µM (Hepatitis C virus [5]) [%] | Ratio CC50/EC50 [7] |
| --- | --- | --- | --- | --- | --- | --- | --- |
| COc1ccccc1C1CCc2ccccc2C1=O (centres undefined) | 50.1 | 14.3 | 117 | 48.4 | 8.2 | 84.4 | 2.3 |
| COc1cc2c(cc1OC)C(=O)C(c1ccccc1OC)CC2 (centres undefined) | 42.5 | 4.8 | 126 | 60.2 | 26.2 | 79.9 | 2.9 |
| COc1ccccc1C1CCc2c(O)ccc(OC)c2C1=O (centres undefined) | – | – | > 200 | 41.2 | – | 44 | – |
| COc1cccc2c1CCC(c1ccccc1O)C2=O (centres undefined) | – | 10.8 | 111 | 26.1 | 10.2 | 86 | – |
| COc1ccc(O)c2c1C(=O)C(c1ccccc1OCc1ccccc1)CC2 (centres undefined) | 6.21 | 4.4 | < 50 | 99.1 | <11.3 | 98 | <8 |
| COc1ccccc1C1CCc2c(OC)cccc2C1=O (centres undefined) | 48.5 | 10.8 | > 200 | 51.7 | >18.5 | 86.6 | >4.1 |
| COc1ccccc1C1CCc2c(OC)ccc(OC)c2C1=O (centres undefined) | 8 | 6.8 | > 200 | 80.6 | >29.5 | 88.8 | >24.9 |

Further lines, with some results ahead:

| EC50 (Hepatitis C virus [1]) [µM] | EC50 (Hepatitis C virus [6]) [µM] | SMILES | CC50 [2] [µM] | inhibition at 50 µM (Hepatitis C virus [3]) [%] | Ratio CC50/EC50 [4] | inhibition at 50 µM (Hepatitis C virus [5]) [%] | Ratio CC50/EC50 [7] |
| --- | --- | --- | --- | --- | --- | --- | --- |
| 44.3 | 11 | COc1ccc(C2CCc3ccccc3C2=O)c(OC)c1 (centres undefined) | 63.6 | 55.6 | 5.7 | 83.9 | 1.4 |
| 14.3 | 15 | COc1ccc(C2CCc3ccc(OC)cc3C2=O)c(OC)c1 (centres undefined) | < 50 | 95.2 | <3.3 | 97.6 | <3.5 |
| 10.6 | 1.5 | COc1ccc2c(c1)CCC(c1ccccc1OC)C2=O (centres undefined) | 152 | 86.4 | 101.4 | 88.8 | 14.3 |
| 12.8 | 3.2 | COc1ccc(C2CCc3c(OC)cccc3C2=O)c(OC)c1 (centres undefined) | 104 | 96.5 | 32.6 | 99.5 | 8.2 |
| 8.2 | 21.5 | COc1ccc(C2CCc3c(OC)ccc(OC)c3C2=O)c(OC)c1 (centres undefined) | < 50 | 73.8 | <2.3 | 86.2 | <6 |
| 29.5 | 3.6 | COc1ccc2c(c1)C(=O)C(c1ccccc1OC)CC2 (centres undefined) | 111 | 85.4 | 30.8 | 91.8 | 3.7 |
| 1.8 | 4.3 | COc1ccc(C2CCc3cc(OC)c(OC)cc3C2=O)c(OC)c1 (centres undefined) | > 200 | 89.6 | >46.1 | 86.8 | > 111 |
| 7.5 | 3.3 | COc1ccc2c(c1)CCC(c1ccc(OC)cc1OC)C2=O (centres undefined) | < 50 | 89.5 | <15.3 | 93.4 | <6.6 |

Reference: ChEMBL document CHEMBL3407442, “Synthesis and biological evaluation of α-aryl-α-tetralone derivatives as hepatitis C virus inhibitors” (Eur J Med Chem, 2015)
